Laboratory results taken from patent US8436195B2 (priority 2006, dated 2013).

What was measured:
[1] = water and alcohol; from Mashkovskiy, Medications; cited from earlier work
[2] = tested on: cancer cells PC-3 (prostate carcinoma); assay: Mitochondria membranes of PC-3 cancer cells after incubation with preparation; format: cell-based; settings: PC-3 cells, diluted to 10^−5 mmol/l, 72 hours at 37° C.
Method: A control group was also formed consisting of the same number of vials with the same components except cancer cells, and instead, fibroblasts were put in the group vials. After thermostatting for 72 hours at 37° C. the contents of the above vials was analyzed.

| SMILES | solubility [1] | state of mitochondria membranes [2] |
| --- | --- | --- |
| O=c1[nH]cc(F)c(=O)[nH]1 [fluororacil] | poorly soluble in water and alcohol | – |
| COc1cccc2c1C(=O)c1c(O)c3c(c(O)c1C2=O)C[C@@](O)(C(=O)CO)C[C@@H]3O[C@H]1C[C@H](N)[C@H](O)[C@H](C)O1 [adriamycin] | – | membrane swelling |
